Earlier results as cited in patent publication US11826320B2, “Treating COVID 19 by using a mixture of cannabinoids in micellized form to lower levels of pro-inflammatory cytokines and reduce risk of cytokine storm” (WSMEF, LLC, priority 2020, dated 2023).

What was measured:
δ-opioid receptor = δ-opioid receptor (Homo sapiens, UniProt P41143)
SARS-CoV-2 = details: purified CBD
cannabinoid CB2 receptor = cannabinoid CB2 receptor (Homo sapiens, UniProt P34972)
μ-opioid receptor = μ-opioid receptor (Homo sapiens, UniProt P35372)
Chain of μ-opioid receptor (P35372 whole entry): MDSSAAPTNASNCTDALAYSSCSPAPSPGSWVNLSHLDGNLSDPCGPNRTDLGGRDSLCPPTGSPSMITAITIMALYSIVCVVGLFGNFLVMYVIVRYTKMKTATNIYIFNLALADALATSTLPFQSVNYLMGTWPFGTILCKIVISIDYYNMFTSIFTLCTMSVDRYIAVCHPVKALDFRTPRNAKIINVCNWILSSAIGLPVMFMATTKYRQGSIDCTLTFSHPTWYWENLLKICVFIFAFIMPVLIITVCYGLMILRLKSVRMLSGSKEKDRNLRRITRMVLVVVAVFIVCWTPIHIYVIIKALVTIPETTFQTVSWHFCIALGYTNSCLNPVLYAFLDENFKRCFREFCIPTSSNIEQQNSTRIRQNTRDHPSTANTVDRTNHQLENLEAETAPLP

[1] = molecular target: T1, serotonin 5-HT1A receptor (Homo sapiens, UniProt P08908)
T1 sequence (P08908 1-422): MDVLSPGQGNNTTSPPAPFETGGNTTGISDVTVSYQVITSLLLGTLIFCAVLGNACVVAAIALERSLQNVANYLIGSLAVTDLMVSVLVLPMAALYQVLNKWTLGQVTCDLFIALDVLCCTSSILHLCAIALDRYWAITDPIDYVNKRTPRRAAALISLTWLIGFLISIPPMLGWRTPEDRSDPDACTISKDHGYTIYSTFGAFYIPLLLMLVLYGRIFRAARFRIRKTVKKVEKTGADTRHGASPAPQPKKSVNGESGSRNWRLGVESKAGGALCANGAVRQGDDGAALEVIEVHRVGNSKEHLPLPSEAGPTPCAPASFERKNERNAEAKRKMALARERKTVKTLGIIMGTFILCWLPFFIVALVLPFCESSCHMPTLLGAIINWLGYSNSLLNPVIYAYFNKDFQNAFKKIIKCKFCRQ

Chain of δ-opioid receptor (P41143 whole entry): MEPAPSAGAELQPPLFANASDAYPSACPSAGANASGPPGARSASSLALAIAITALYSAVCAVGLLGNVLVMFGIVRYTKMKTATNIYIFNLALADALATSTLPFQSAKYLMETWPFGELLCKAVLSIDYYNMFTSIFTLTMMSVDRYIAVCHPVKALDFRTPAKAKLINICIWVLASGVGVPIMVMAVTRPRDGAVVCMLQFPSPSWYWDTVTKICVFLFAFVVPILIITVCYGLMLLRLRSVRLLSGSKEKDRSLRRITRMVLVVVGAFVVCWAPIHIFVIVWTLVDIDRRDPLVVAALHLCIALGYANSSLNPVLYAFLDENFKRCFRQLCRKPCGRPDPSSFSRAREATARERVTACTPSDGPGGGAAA
Chain of cannabinoid CB2 receptor (P34972 whole entry): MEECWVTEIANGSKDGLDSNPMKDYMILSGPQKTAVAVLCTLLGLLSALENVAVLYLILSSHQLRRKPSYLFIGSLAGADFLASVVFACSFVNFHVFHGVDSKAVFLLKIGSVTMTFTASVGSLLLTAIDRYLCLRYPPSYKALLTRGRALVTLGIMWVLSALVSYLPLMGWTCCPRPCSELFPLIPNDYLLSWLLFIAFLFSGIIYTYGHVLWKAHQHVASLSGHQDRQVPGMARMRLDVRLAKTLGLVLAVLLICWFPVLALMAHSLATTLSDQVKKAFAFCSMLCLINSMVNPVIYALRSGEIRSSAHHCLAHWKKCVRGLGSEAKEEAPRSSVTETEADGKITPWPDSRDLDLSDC

C=C(C)[C@@H]1CCC(C)=C[C@H]1c1c(O)cc(CCCCC)cc1O [CBD, cannabidiol]
action at δ-opioid receptor (δ-opioid receptor): allosteric modulator | replication of SARS-CoV-2 (SARS-CoV-2): inhibits replication | affinity for CB2 receptor (cannabinoid CB2 receptor): low affinity | action at μ-opioid receptor (μ-opioid receptor): allosteric modulator | action at 5-HT1A receptor [1]: partial agonist
